The record followed here is US12252524B2, “GIP/GLP1 co-agonist compounds” (Eli Lilly and Company, priority 2018, dated 2025).

For one assay, the target named is T1, human Gcg receptor (Homo sapiens, UniProt P47871).
T1 construct: expressed in transfected cells; crude membranes
As to the kind of experiment: [125I]-Glucagon binding (SPA), human Gcg receptor. Conditions: read-out: hGLcgR Ki, nM (SEM, n). A digest of the protocol:
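Crude membranes from cells expressing the receptor, prepared by hypotonic lysis in 50 mM Tris HCl pH 7.5 with protease inhibitors, homogenization and differential centrifugation, were used in a WGA-bead SPA. Binding buffer: 25 mM HEPES pH 7.4, 2.5 mM CaCl2, 1 mM MgCl2, bacitracin, Tween-20.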

The target in assay [1] is T2, gastric inhibitory peptide receptor (GIPR) (Homo sapiens, UniProt P48546).
T2 sequence (P48546 22-466): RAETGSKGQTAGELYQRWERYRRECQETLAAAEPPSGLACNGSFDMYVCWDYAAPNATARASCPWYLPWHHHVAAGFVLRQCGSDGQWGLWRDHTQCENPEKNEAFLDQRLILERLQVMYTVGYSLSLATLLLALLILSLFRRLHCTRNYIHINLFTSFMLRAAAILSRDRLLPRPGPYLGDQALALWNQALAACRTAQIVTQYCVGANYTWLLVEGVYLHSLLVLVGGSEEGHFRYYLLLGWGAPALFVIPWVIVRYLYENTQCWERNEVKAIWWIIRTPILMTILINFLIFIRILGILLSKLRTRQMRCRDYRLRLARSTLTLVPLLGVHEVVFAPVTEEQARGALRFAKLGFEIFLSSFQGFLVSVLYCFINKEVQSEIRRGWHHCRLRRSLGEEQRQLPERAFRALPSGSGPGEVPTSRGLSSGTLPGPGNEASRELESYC
As to the kind of experiment: cAMP pharmacological functional assay in presence of casein, hGIPR. Conditions: HEK293 cells expressing hGIPR, 0.1% Casein, geometric mean; read-out: hGIPR cAMP Rel EC50 nM (SEM, n). The assay is classed as cell-based.

A further assay concerns the target T3, human GIP receptor (Homo sapiens, UniProt P48546).
T3 construct: expressed in transfected cells; crude membranes
T3 sequence (P48546 22-466): T2 sequence (P48546 22-466)
As to the kind of experiment: [125I]-GIP binding (SPA), human GIP receptor. Particulars: read-out: hGIPR Ki, nM (SEM, n).

Assay [2] concerns the target human GLP-1 receptor (GLP-1R) (Homo sapiens, UniProt P43220). As to the kind of experiment: cAMP pharmacological functional assay in presence of casein, hGLP-1R. The assay is classed as cell-based. Conditions: HEK293 cells expressing hGLP-1R, 0.1% Casein, geometric mean; read-out: hGLP1R cAMP Rel EC50 nM (SEM, n).
The target in another assay is human GLP-1R (Homo sapiens, UniProt P43220). As to the kind of experiment: [125I]-GLP-1 binding (SPA), human GLP-1 receptor. Also noted: expressed in transfected cells; crude membranes. Particulars: read-out: hGLP1R Ki, (nM) (SEM, n). Summed up:
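Crude-membrane binding assay; one membrane prep included 1 mM MgCl2 and 25 units/ml DNAse I during lysis. Assay buffer at pH 7.4 contains 0.1% (w/v) bacitracin and 0.003% (w/v) TWEEN-20. Ki is reported as geometric mean.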

In general, Ki refers to the equilibrium dissociation constant of an inhibitor or competing ligand from its target. A word on the EC50: it is the concentration that produces a half-maximal response.

Each structure is given as a SMILES string. Numbered stars: 1 amine (or outer) side, 2 acyl side, 3 side chain; on linkers, the order of the positions; unused ones are H or OH. Square brackets hold non-standard residues; d marks the D form. Side chains are listed from the residue outwards. Peptide text beside a SMILES is read from it. * marks the point of attachment. C20 diacid = O=C(O)CCCCCCCCCCCCCCCCCCC(=O)*; C18 diacid = O=C(O)CCCCCCCCCCCCCCCCC(=O)*; αMePhe(2-F) = C[C@](N)(Cc1ccccc1F)C(=O)O; γGlu = O=C(O)[C@H](CCC(=O)[*:2])N[*:1]; αMeL = CC(C)C[C@](C)(N)C(=O)O; Orn = NCCC[C@H](N)C(=O)O; AEEA = NCCOCCOCC(=O)O; Aib = CC(C)(N)C(=O)O

T1 sequence (P47871 26-477): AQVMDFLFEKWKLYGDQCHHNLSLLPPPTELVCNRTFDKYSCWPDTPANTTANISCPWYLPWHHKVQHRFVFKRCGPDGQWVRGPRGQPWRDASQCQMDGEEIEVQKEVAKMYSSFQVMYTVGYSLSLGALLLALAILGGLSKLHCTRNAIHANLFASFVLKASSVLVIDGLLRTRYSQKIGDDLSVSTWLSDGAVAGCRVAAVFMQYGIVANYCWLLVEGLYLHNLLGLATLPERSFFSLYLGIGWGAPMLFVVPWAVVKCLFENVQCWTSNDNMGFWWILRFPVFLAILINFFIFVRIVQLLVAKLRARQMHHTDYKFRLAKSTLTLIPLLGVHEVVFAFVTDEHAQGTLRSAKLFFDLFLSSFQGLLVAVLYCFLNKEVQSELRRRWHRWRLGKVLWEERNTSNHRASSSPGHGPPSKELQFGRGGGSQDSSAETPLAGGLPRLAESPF
Chain of human GLP-1R (P43220 24-463): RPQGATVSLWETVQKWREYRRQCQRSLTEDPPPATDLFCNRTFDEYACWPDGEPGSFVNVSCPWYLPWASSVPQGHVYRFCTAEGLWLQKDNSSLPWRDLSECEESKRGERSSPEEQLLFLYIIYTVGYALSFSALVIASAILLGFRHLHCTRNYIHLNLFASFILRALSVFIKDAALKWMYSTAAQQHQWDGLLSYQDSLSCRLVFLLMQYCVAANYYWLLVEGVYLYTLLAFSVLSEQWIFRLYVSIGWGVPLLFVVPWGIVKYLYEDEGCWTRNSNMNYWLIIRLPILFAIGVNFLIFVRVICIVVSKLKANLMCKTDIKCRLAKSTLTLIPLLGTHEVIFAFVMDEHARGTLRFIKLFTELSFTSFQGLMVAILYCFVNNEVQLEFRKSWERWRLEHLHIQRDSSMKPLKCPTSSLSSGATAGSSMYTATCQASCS
Chain of human GLP-1 receptor (GLP-1R) (P43220 24-463): as above

In the case of `CC[C@H](C)[C@H](NC(=O)[C@H](CC(C)C)NC(=O)[C@H](Cc1ccc(O)cc1)NC(=O)[C@@H](CCC(=O)O)NC(=O)[C@@H](NC(=O)[C@H](Cc1ccccc1)NC(=O)[C@H](CCC(=O)O)NC(=O)C(C)(C)NC(=O)[C@H](CCC(N)=O)NC(=O)[C@H](C)NC(=O)[C@H](CCCCNC(=O)COCCOCCNC(=O)COCCOCCNC(=O)CC[C@H](NC(=O)CCCCCCCCCCCCCCCCCCC(=O)O)C(=O)O)NC(=O)[C@H](CCC(=O)O)NC(=O)[C@H](CC(=O)O)NC(=O)[C@H](CC(C)C)NC(=O)C(C)(C)NC(=O)[C@@H](NC(=O)[C@H](CO)NC(=O)[C@H](Cc1ccc(O)cc1)NC(=O)[C@H](CC(=O)O)NC(=O)[C@H](CO)NC(=O)[C@@H](NC(=O)[C@](C)(Cc1ccccc1F)NC(=O)[C@@H](NC(=O)CNC(=O)[C@H](CCC(=O)O)NC(=O)C(C)(C)NC(=O)[C@@H](N)Cc1ccc(O)cc1)[C@@H](C)O)[C@@H](C)O)[C@@H](C)CC)[C@@H](C)CC)C(=O)N[C@@H](CCC(=O)O)C(=O)NCC(=O)NCC(=O)N1CCC[C@H]1C(=O)N[C@@H](CO)C(=O)N[C@@H](CO)C(=O)NCC(=O)N[C@@H](C)C(=O)N1CCC[C@H]1C(=O)N1CCC[C@H]1C(=O)N1CCC[C@H]1C(=O)N[C@@H](CO)C(N)=O` [Example 224] (H-Y[Aib]EGT[αMePhe(2-F)]TSDYSI[Aib]LDEK([AEEA-AEEA-γGlu-C20 diacid])AQ[Aib]EFI[dE]YLIEGGPSSGAPPPS-NH2), the results for the Ki at human Gcg receptor, on human GIP receptor and at human GLP-1R were 627 nM, 0.0482 nM and 6.86 nM, respectively. The EC50 came out at 0.0545 nM in assay [1] and 0.0349 nM in assay [2].

`CC[C@H](C)[C@H](NC(=O)[C@H](CC(C)C)NC(=O)[C@H](Cc1ccc(O)cc1)NC(=O)[C@H](CCC(=O)O)NC(=O)[C@@H](NC(=O)[C@H](Cc1ccccc1)NC(=O)[C@H](CCC(=O)O)NC(=O)C(C)(C)NC(=O)[C@H](CCC(N)=O)NC(=O)[C@H](C)NC(=O)[C@H](CCCCNC(=O)COCCOCCNC(=O)COCCOCCNC(=O)CC[C@H](NC(=O)CCCCCCCCCCCCCCCCCCC(=O)O)C(=O)O)NC(=O)[C@H](CCC(=O)O)NC(=O)[C@H](CC(=O)O)NC(=O)[C@H](CC(C)C)NC(=O)[C@](C)(CC(C)C)NC(=O)[C@@H](NC(=O)[C@H](CO)NC(=O)[C@H](Cc1c[nH]cn1)NC(=O)[C@H](CC(=O)O)NC(=O)[C@H](CO)NC(=O)[C@@H](NC(=O)[C@](C)(Cc1ccccc1F)NC(=O)[C@@H](NC(=O)CNC(=O)[C@H](CCC(=O)O)NC(=O)C(C)(C)NC(=O)[C@@H](N)Cc1ccc(O)cc1)[C@@H](C)O)[C@@H](C)O)[C@@H](C)CC)[C@@H](C)CC)C(=O)N[C@@H](CCC(=O)O)C(=O)NCC(=O)NCC(=O)N1CCC[C@H]1C(=O)N[C@@H](CO)C(=O)N[C@@H](CO)C(=O)NCC(=O)N[C@@H](C)C(=O)N1CCC[C@H]1C(=O)N1CCC[C@H]1C(=O)N1CCC[C@H]1C(=O)N[C@@H](CO)C(N)=O` [Example 154] (H-Y[Aib]EGT[αMePhe(2-F)]TSDHSI[αMeL]LDEK([AEEA-AEEA-γGlu-C20 diacid])AQ[Aib]EFIEYLIEGGPSSGAPPPS-NH2): the results for the inhibition constant Ki at human Gcg receptor, at human GIP receptor and on human GLP-1R were 762 nM, 0.061 nM and 5.64 nM, respectively. Also, the EC50 is 0.0266 nM in assay [1] and 0.0393 nM in assay [2].

As for `CC[C@H](C)[C@H](NC(=O)[C@H](CC(C)C)NC(=O)[C@H](Cc1ccc(O)cc1)NC(=O)[C@@H](CCC(=O)O)NC(=O)[C@@H](NC(=O)[C@H](Cc1ccccc1)NC(=O)[C@H](CCC(=O)O)NC(=O)C(C)(C)NC(=O)[C@H](CCC(N)=O)NC(=O)[C@H](C)NC(=O)[C@H](CCCCNC(=O)COCCOCCNC(=O)COCCOCCNC(=O)CC[C@H](NC(=O)CCCCCCCCCCCCCCCCC(=O)O)C(=O)O)NC(=O)[C@H](CCC(=O)O)NC(=O)[C@H](CC(=O)O)NC(=O)[C@H](CC(C)C)NC(=O)[C@](C)(CC(C)C)NC(=O)[C@@H](NC(=O)[C@H](CO)NC(=O)[C@H](Cc1ccc(O)cc1)NC(=O)[C@H](CC(=O)O)NC(=O)[C@H](CO)NC(=O)[C@@H](NC(=O)[C@](C)(Cc1ccccc1F)NC(=O)[C@@H](NC(=O)CNC(=O)[C@H](CCC(=O)O)NC(=O)C(C)(C)NC(=O)[C@@H](N)Cc1ccc(O)cc1)[C@@H](C)O)[C@@H](C)O)[C@@H](C)CC)[C@@H](C)CC)C(=O)N[C@@H](CCC(=O)O)C(=O)NCC(=O)NCC(=O)N1CCC[C@H]1C(=O)N[C@@H](CO)C(=O)N[C@@H](CO)C(=O)NCC(N)=O` [Example 219] (H-Y[Aib]EGT[αMePhe(2-F)]TSDYSI[αMeL]LDEK([AEEA-AEEA-γGlu-C18 diacid])AQ[Aib]EFI[dE]YLIEGGPSSG-NH2), the inhibitory constant (Ki) at human Gcg receptor was 373 nM; on human GIP receptor it was 0.0689 nM; at human GLP-1R, 2.01 nM. Besides, the results for the EC50 in assay [1] and in assay [2] were 0.0341 nM and 0.0403 nM, respectively.

Consider `CC[C@H](C)[C@H](NC(=O)[C@H](Cc1ccccc1)NC(=O)[C@H](C)NC(=O)C(C)(C)NC(=O)[C@H](CCC(N)=O)NC(=O)[C@H](C)NC(=O)[C@H](CCCCNC(=O)COCCOCCNC(=O)COCCOCCNC(=O)CC[C@H](NC(=O)CCCCCCCCCCCCCCCCCCC(=O)O)C(=O)O)NC(=O)[C@H](CO)NC(=O)[C@H](CC(=O)O)NC(=O)[C@H](CC(C)C)NC(=O)[C@H](CC(C)C)NC(=O)[C@@H](NC(=O)[C@H](CO)NC(=O)[C@H](Cc1ccc(O)cc1)NC(=O)[C@H](CC(=O)O)NC(=O)[C@H](CO)NC(=O)[C@@H](NC(=O)[C@H](Cc1ccccc1)NC(=O)[C@@H](NC(=O)CNC(=O)[C@H](CCC(=O)O)NC(=O)C(C)(C)NC(=O)[C@@H](N)Cc1ccc(O)cc1)[C@@H](C)O)[C@@H](C)O)[C@@H](C)CC)C(=O)N[C@@H](CCC(=O)O)C(=O)N[C@@H](Cc1ccc(O)cc1)C(=O)N[C@@H](CC(C)C)C(=O)N[C@@H](CC(C)C)C(=O)N[C@@H](CCC(=O)O)C(=O)NCC(=O)NCC(=O)N1CCC[C@H]1C(=O)N[C@@H](CO)C(=O)N[C@@H](CO)C(=O)NCC(=O)N[C@@H](C)C(=O)N1CCC[C@H]1C(=O)N1CCC[C@H]1C(=O)N1CCC[C@H]1C(=O)N[C@@H](CO)C(N)=O` [Example 7] (H-Y[Aib]EGTFTSDYSILLDSK([AEEA-AEEA-γGlu-C20 diacid])AQ[Aib]AFIEYLLEGGPSSGAPPPS-NH2), for which the inhibition constant (Ki) at human Gcg receptor was 198 nM; on human GIP receptor it was 0.252 nM; on human GLP-1R, 43.3 nM. The EC50 in assay [1] turned out to be 0.461 nM; in assay [2] it was 0.47 nM.

`CC[C@H](C)[C@H](NC(=O)[C@H](CC(C)C)NC(=O)[C@H](Cc1ccc(O)cc1)NC(=O)[C@@H](CCC(=O)O)NC(=O)[C@@H](NC(=O)[C@H](Cc1ccccc1)NC(=O)[C@H](CCC(=O)O)NC(=O)C(C)(C)NC(=O)[C@H](CCC(N)=O)NC(=O)[C@H](C)NC(=O)[C@H](CCCCNC(=O)COCCOCCNC(=O)COCCOCCNC(=O)CC[C@H](NC(=O)CCCCCCCCCCCCCCCCCCC(=O)O)C(=O)O)NC(=O)[C@H](CCCN)NC(=O)[C@H](CC(=O)O)NC(=O)[C@H](CC(C)C)NC(=O)C(C)(C)NC(=O)[C@@H](NC(=O)[C@H](CO)NC(=O)[C@H](Cc1ccc(O)cc1)NC(=O)[C@H](CC(=O)O)NC(=O)[C@H](CO)NC(=O)[C@@H](NC(=O)[C@](C)(Cc1ccccc1F)NC(=O)[C@@H](NC(=O)CNC(=O)[C@H](CCC(=O)O)NC(=O)C(C)(C)NC(=O)[C@@H](N)Cc1ccc(O)cc1)[C@@H](C)O)[C@@H](C)O)[C@@H](C)CC)[C@@H](C)CC)C(=O)N[C@@H](CCC(=O)O)C(=O)NCC(=O)NCC(=O)N1CCC[C@H]1C(=O)N[C@@H](CO)C(=O)N[C@@H](CO)C(=O)NCC(=O)N[C@@H](C)C(=O)N1CCC[C@H]1C(=O)N1CCC[C@H]1C(=O)N1CCC[C@H]1C(=O)N[C@@H](CO)C(N)=O` [Example 250] (H-Y[Aib]EGT[αMePhe(2-F)]TSDYSI[Aib]LD[Orn]K([AEEA-AEEA-γGlu-C20 diacid])AQ[Aib]EFI[dE]YLIEGGPSSGAPPPS-NH2): the Ki on human Gcg receptor turned out to be 198 nM; at human GIP receptor, 0.0171 nM; at human GLP-1R, 1.72 nM. The figures for the EC50 in assay [1] and in assay [2] were 0.0376 nM and 0.0306 nM, respectively.
